Assay [1] has as its target T1, human fibroblast collagenase (Homo sapiens, UniProt P03956).
T1 sequence (P03956 100-469): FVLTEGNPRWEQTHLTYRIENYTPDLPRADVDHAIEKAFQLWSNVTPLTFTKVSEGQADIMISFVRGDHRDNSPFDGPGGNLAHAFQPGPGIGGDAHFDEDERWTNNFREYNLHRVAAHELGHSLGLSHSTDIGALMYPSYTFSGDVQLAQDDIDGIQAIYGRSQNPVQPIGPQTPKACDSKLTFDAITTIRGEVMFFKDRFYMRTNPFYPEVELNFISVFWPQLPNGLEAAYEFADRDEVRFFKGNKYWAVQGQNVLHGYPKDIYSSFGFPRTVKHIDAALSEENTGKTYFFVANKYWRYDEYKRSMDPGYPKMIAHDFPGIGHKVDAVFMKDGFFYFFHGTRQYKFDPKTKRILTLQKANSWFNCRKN
The experiment in a line: Assay for inhibition of collagenase (fluorescein-labeled bovine type I collagen substrate). It is filed as biochemical. The following applies: activated human fibroblast procollagenase, 35°C, 2 hours, pH 7.5; read-out: Inhibition of MMP-1. The protocol: (§1) Described below are assays for biological activities of the compounds according to the present invention, formulations, dosage forms and dosage levels thereof, and miscellaneous matters. The efficacy of the compounds represented by the formula (I) according to the present invention as inhibitors of human fibroblast collagenase (metalloproteinase involved in the breakdown of tissues) is determined by a procedure based on the method of Y. Murawaki et al., Journal of Hepatology, 18, p328-334 (1993). The efficacy of the compounds (I) of this invention as inhibitors of human fibroblast stromelysin is determined by a procedure based on the method of S. S. Twining, Anal. Biochem., 143, p30 (1984). The assay results obtained are shown hereinbelow, together with biological examples which illustrate embodiments of the assay protocols.
The efficacy of compounds of the present invention to act as inhibitors of human fibroblast collagenase was determined by the procedure of Y. Murawaki et al. (Journal of Hepatology, 18, p.328-334, 1993), compared with a reference compound.
Procollagenase was activated by incubation with 2 mM 4-aminophenylmercuric acetate (APMA) at 35°C for 2 hours. The inhibition was assayed using, as a substrate, fluorescein-labeled bovine type I collagen. To a solution of the substrate (0.5 mg/ml) in a 50 mM Tris-HCl buffer, pH 7.5, containing 0.4M aqueous sodium chloride and 10 mM aqueous […] was added the activated collagenase. The resultant solution was incubated at 35°C for 2 hours. The digestion of the substrate with the enzyme was stopped by addition of 80 mM o-phenanthroline, followed by addition of a porcine elastase solution formed by dissolving 25 µg/ml porcine elastase in the aforementioned Tris-HCl buffer. The mixture was incubated at 37°C for 10 minutes. To the resulting solution was added 70% ethanol, and a 170 mM Tris-HCl buffer, pH 9.5, containing 0.67M aqueous sodium chloride. Undigested substrates were precipitated by centrifugation at 3000 x g for 20 minutes. The supernatant was collected and the fluorescence was read using an excitation wavelength of 495 nm and an emission wavelength of 520 nm. The inhibitory potency of the compounds was calculated. […] The resulting assay data for representative examples are shown in Table 1, compared with the reference compound. […]

The target in assay [2] is human fibroblast stromelysin (Homo sapiens, UniProt P08254). Nature of the assay: Assay for inhibition of stromelysin (fluorescein-labeled casein substrate). It is filed as biochemical. The protocol:
as §1
The efficacy of compounds of the present invention to act as inhibitors of human fibroblast stromelysin was determined by the procedure of Twining (Anal. Biochem., 143, p.30, 1984), compared with a reference compound.
Prostromelysin was activated by incubation with 20 µg/ml human plasmin at 37°C for 2 hours, and the reaction was stopped by addition of 2.8 mg/ml aqueous diisopropyl fluorophosphate. The inhibition was assayed using, as a substrate, fluorescein-labeled casein. To a solution of the substrate (1 mg/ml) in a 50 mM Tris-HCl buffer, pH 7.8, containing 10mM aqueous calcium chloride was added the activated stromelysin. The resultant solution was incubated at 37°C for 2 hours. The digestion of the substrate with the enzyme was stopped by addition of 5% trichloroacetic acid. Undigested substrates were precipitated by centrifugation at 3000 x g for 20 minutes. The supernatant was collected, followd by additon of a 0.5M Tris-HCl buffer, pH 8.5. The fluorescence was read using an excitation wavelength of 495 nm and an emission wavelength of 520 nm. The inhibitory potency of the compounds was calculated. […] The resulting assay data for representative examples are shown in Table 2, compared with the reference compound.

A further assay deals with TNF-α Convertase (Homo sapiens, UniProt P78536). Nature of the assay: Assay for inhibition of TNF-α production in LPS-stimulated, PMA-differentiated U937 cells.
The mark [3] stands for this setting: plasmin-activated human fibroblast prostromelysin, 37°C, 2 hours, pH 7.8, read-out: Inhibition of MMP-3.

The structures appear in SMILES notation. Like-named read-outs stand apart in the source and are kept apart here.

Chain of TNF-α Convertase (P78536 215-824): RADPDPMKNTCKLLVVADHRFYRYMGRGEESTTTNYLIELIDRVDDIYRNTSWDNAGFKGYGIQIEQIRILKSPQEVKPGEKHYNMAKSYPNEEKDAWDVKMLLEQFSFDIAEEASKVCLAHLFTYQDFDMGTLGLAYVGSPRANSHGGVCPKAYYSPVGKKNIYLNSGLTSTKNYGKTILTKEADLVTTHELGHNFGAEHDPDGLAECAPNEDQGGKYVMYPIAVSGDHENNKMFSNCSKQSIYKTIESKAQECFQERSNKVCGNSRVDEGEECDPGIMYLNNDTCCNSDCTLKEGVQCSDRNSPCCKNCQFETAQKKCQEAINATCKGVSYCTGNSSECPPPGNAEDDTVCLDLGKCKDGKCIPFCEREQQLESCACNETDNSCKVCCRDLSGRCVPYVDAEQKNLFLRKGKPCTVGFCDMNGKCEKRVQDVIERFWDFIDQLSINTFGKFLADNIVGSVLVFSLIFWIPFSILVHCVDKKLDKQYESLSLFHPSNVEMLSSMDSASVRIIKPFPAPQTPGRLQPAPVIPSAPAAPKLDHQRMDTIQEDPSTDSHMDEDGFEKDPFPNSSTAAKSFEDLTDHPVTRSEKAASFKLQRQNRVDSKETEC
Chain of human fibroblast stromelysin (P08254 100-477): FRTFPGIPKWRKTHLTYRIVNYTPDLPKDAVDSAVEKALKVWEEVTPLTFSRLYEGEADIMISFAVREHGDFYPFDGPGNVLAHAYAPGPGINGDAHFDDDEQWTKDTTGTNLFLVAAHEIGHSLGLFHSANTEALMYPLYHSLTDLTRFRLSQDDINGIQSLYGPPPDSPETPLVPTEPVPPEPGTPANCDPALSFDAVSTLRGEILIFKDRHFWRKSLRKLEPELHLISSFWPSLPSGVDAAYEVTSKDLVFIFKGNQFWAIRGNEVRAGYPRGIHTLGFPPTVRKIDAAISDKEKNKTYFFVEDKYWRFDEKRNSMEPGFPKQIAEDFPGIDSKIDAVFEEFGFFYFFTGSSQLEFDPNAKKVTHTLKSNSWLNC
Experimental for TNF-α Convertase: Human monocytic leukemia cell line U937 (human histiocytic lymphoma cell line U937) cells were cultured in RPMI 1640 (Nissui Pharmaceutical Co., Ltd., Japan) supplemented with 5% fetal calf serum (FCS; IBL, Japan) in an incubator at 37°C under 5% CO2, then transferred to multiplates at a density of 1 x 10^6 cells/1 ml/well, and incubated overnight in the presence of 10^-7 M phorbol 12-myristate 13-acetate (Wako Pure Chemical Industries, Ltd., Japan) to form differentiated macrophage-like cells. To the resultant cells was added E. coli O127:B8 lipopolysaccaride (LPS, 0.1 µg/ml; Sigma) alone or along with each compound of the present invention, and the treated cells were then incubated for 6 hours in an incubator under 5% CO2 at 37°C. After the incubation, the cultures were collected and centrifuged at 3000 rpm for 10 minutes to give supernatants which were diluted with purified water and then assayed using a TNF-α assay kit, Genzyme (Table 3).

For the compound `CNC(=O)C(CCNC(=N)N)NC(=O)C(CC(C)C)C(C)C(=O)NO` (single isomer, unassigned) [Compound No. 28, N^4-[3-Guanidino-1(S)-methylcarbamoylpropyl]-N^1-hydroxy-3(R)-isobutyl-2(R or S)-methylsuccinamide · 1 acetate], in assay [1], the IC50 turned out to be 10 nM.
For `CC(C)CC(C(=O)NC(CCCN)C(=O)NC1CC1)C(C)C(=O)NO` (single isomer, unassigned) [Compound No. 37, N^a-[4-(Hydroxyamino)-2(R)-isobutyl-3(R or S)-methylsuccinyl]-L-ornithine N-cyclopropylamide · 1 acetate], the IC50 in assay [2] (setting [3]) was found to be 50 nM.
On to `CNC(=O)C(Cc1ccc(CN)cc1)NC(=O)C(CC(C)C)C(CCCc1ccccc1)C(=O)NO` (single isomer, unassigned) [Compound No. 47, N^a-[4-(Hydroxyamino)-2(R)-isobutyl-3(R or S)-(3-phenylpropyl)succinyl]-4'-aminomethyl-L-phenylalanine N-methylamide · 1 acetate], for which, on TNF-α Convertase, the IC50 worked out at 210 nM.
The compound `CNC(=O)[C@H](CCCNC(=N)N)NC(=O)[C@H](CC(C)C)C(Cc1ccc(CNS(C)(=O)=O)cc1)C(=O)NO` (single isomer, unassigned) [Compound No. 52, N^a-[4-(Hydroxyamino)-2(R)-isobutyl-3(R or S)-(p-methanesulfonamidomethylbenzyl)succinyl]-L-arginine N-methylamide· 1 acetate] had an IC50 in assay [2] of 23 nM.
As to `CNC(=O)[C@H](CCCNC(=N)N)NC(=O)[C@H](CC(C)C)C(CCOc1ccccc1)C(=O)NO` (single isomer, unassigned) [Compound No. 54, N^a-[4-(Hydroxyamino)-2(R)-isobutyl-3(R or S)-(2-phenoxyethyl)succinyl]-L-arginine N-methylamide· 1 acetate], the IC50 in assay [2] worked out at 10 nM; on TNF-α Convertase, 340 nM.
With `CNC(=O)C(CCCNC(=N)N)NC(=O)C(CC(C)C)C(CCCC1CCCCC1)C(=O)NO` (single isomer, unassigned) [Compound No. 55, N^a-[4-(Hydroxyamino)-2(R)-isobutyl-3(R or S)-(3-cyclohexylpropyl)succinyl]-L-arginine N-methylamide · 1 acetate], the IC50 at TNF-α Convertase was found to be 279 nM.
The same measure, in the same setting: then `CNC(=O)[C@H](C)NC(=O)[C@H](CC(C)C)C(CCCCCNC(C)=N)C(=O)NO` (single isomer, unassigned) [Compound No. 62, N^a-[4-(Hydroxyamino)-2(R)-isobutyl-3(R or S)-[5-(acetimidoylimino)pentyl]succinyl]-L-alanine N-methylamide], with 2890 nM; and `CNC(=O)[C@H](CCCCN)NC(=O)[C@H](CC(C)C)C(CCCc1ccc(C(=O)OC)cc1)C(=O)NO` (single isomer, unassigned) [Compound No. 65, N^a-[4-(Hydroxyamino)-2(R)-isobutyl-3(R or S)-[3-(p-methoxycarbonylphenyl)propyl]succinyl]-L-lysine N-methylamide· 1 acetate], with 421 nM.
The same measure, in the same setting: then `CNC(=O)[C@H](CCCCN)NC(=O)[C@H](CC(C)C)C(CCCc1ccc(C(=O)O)cc1)C(=O)NO` (single isomer, unassigned) [Compound No. 67, N^a-[4-(Hydroxyamino)-2(R)-isobutyl-3(R or S)-[3-(p-carboxyphenyl)propyl]succinyl]-L-lysine N-methylamide], with 527 nM.
Consider `CNC(=O)[C@H](CCCCN)NC(=O)[C@H](CC(C)C)C(CCCCCCCCO)C(=O)NO` (single isomer, unassigned) [Compound No. 68, N^a-[4-(Hydroxyamino)-2(R)-isobutyl-3(R or S)-(8-hydroxyoctyl)-succinyl]-L-lysine N-methylamide· 1 acetate], for which the IC50 in assay [2] stood at 14 nM.
Same read-out and setting: the result for `CNC(=O)[C@H](CCCCN)NC(=O)[C@H](CC(C)C)C(CCOCC(C)C)C(=O)NO` (single isomer, unassigned) [Compound No. 70, N^a-[4-(Hydroxyamino)-2(R)-isobutyl-3(R or S)-(2-isobutyloxyethyl)succinyl]-L-lysine N-methylamide· 1 acetate] reads 28 nM.
With `CNC(=O)[C@H](CCCCN)NC(=O)[C@H](CC(C)C)C(CCCN1CCOCC1)C(=O)NO` (single isomer, unassigned) [Compound No. 73, N^a-[4-(Hydroxyamino)-2(R)-isobutyl-3(R or S)-[3-(morpholin-4-yl)propyl]succinyl]-L-lysine N-methylamide· 1 acetate], the IC50 in assay [1] is 11 nM.
For `CNC(=O)[C@H](CCN)NC(=O)[C@H](CC(C)C)C(CCCc1ccc(CN)cc1)C(=O)NO` (single isomer, unassigned) [Compound No. 78, N^4-[3-Amino-1(S)-methylcarbamoylpropyl)-N^1-hydroxy-2(R or S)-[3-(p-aminomethylphenyl)propyl]-3(R)-isobutylsuccinamide· 2 acetate], in assay [1], the IC50 stood at 18 nM.
For `CNC(=O)[C@@H](NC(=O)[C@H](CC(C)C)C(CCCc1ccc(CN)cc1)C(=O)NO)C(C)(C)C` (single isomer, unassigned) [Compound No. 79, N^a-[4-(Hydroxyamino)-2(R)-isobutyl-3(R or S)-[3-(p-aminomethylphenyl)propyl]succinyl]-L-tert-leucine N-methylamide· 1 acetate], in assay [1], the IC50 turned out to be 5 nM.
Same read-out and setting: the result for `CNC(=O)[C@H](CCCN)NC(=O)[C@H](CC(C)C)C(CCCc1ccc(CN)cc1)C(=O)NO` (single isomer, unassigned) [Compound No. 80, N^a-[4-(Hydroxyamino)-2(R)-isobutyl-3(R or S)-[3-(p-aminomethylphenyl)propyl]succinyl]-L-ornithine N-methylamide· 1 acetate] reads 9 nM.
At TNF-α Convertase, `CC(C)CC(C(=O)NO)C(CC(C)C)C(=O)NC(Cc1ccc(CN)cc1)C(=O)NCCN(C)C` (single isomer, unassigned) [Compound No. 89, N^a-[4-(Hydroxyamino)-2(R),3(R or S)-diisobutylsuccinyl]-4'-aminomethyl-L-phenylalanine N-(2-N',N'-dimethylaminoethyl)amide· 2 acetate] had an IC50 of 1900 nM.
In turn, `CNC(=O)C(CCNC(=N)N)NC(=O)C(CC(C)C)C(CCCc1ccccc1)C(=O)NO` [Compound No. 26, N^4-[3-Guanidino-1(S)-methylcarbamoylpropyl]-N^1-hydroxy-3(R)-isobutyl-2-(RS)-(3-phenylpropyl)succinamide · 1 acetate] yielded an IC50 in assay [2] of 40 nM.
With `CC(C)CC(C(=O)NO)C(CC(C)C)C(=O)NC(Cc1ccc(CN)cc1)C(=O)NCCO` [Compound No. 35, N^a-[4-(Hydroxyamino)-2(R),3(RS)-diisobutylsuccinyl]-4'-aminomethyl-L-phenylalanine N-(2-hydroxyethyl)amide · 1 acetate], the IC50 in assay [2] (setting [3]) came out at 19 nM.
On TNF-α Convertase, `CNC(=O)[C@H](C)NC(=O)[C@H](CC(C)C)C(CCCc1ccc(CN)cc1)C(=O)NO` (stereo partly drawn) [Compound No. 58, N^a-[4-(Hydroxyamino)-2(R)-isobutyl-3(RS)-[3-(p-aminomethylphenyl)propyl]succinyl]-L-alanine N-methylamide · 1 acetate] returned an IC50 of 942 nM.

These data come from patent publication EP1038864A1, “NOVEL METALLOPROTEINASE INHIBITORS” (FUJI YAKUHIN KOGYO KABUSHIKI KAISHA, priority 1997, dated 1999).
